Laboratory results from ChEMBL document CHEMBL1201862, “PubChem BioAssay data set” (2004).
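Results reflect a 48-hour exposure of cells in 96-well plates to compound at five concentrations. GI50 marks 50% less growth.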 Active and inactive are the calls of the source. Rule as the data show it: active = GI50 up to about 1.1 µM and inactive = higher.

Columns and labels:
Experiment in all cases: NCI-60 cell line screen, 48 h
786-0 = system: 786-0
CAKI-1 = system: CAKI-1
CCRF-CEM = system: CCRF-CEM
DU-145 = system: DU-145
HCT-116 = system: HCT-116
HOP-92 = system: HOP-92
HT-29 = system: HT-29
Hs-578T = system: Hs-578T
IGROV-1 = system: IGROV-1
OVCAR-3 = system: OVCAR-3
OVCAR-5 = system: OVCAR-5
RPMI-8226 = system: RPMI-8226
SK-MEL-2 = system: SK-MEL-2
SNB-75 = system: SNB-75
T47D = system: T47D
U-251 = system: U-251
UACC-62 = system: UACC-62

Measured: GI50

COc1cc(OC)cc(Oc2nc3ccccc3nc2C(=O)O)c1
inactive: 786-0 > 100 µM | CAKI-1 > 100 µM | CCRF-CEM > 100 µM | DU-145 > 100 µM | HCT-116 > 100 µM | HOP-92 > 100 µM | HT-29 > 100 µM | Hs-578T > 100 µM | IGROV-1 > 100 µM | OVCAR-3 > 100 µM | OVCAR-5 > 100 µM | RPMI-8226 > 100 µM | SK-MEL-2 > 100 µM | SNB-75 > 100 µM | T47D > 100 µM | U-251 > 100 µM | UACC-62 > 100 µM

N/C1=C/C(=O)NC(=O)c2c(c3ccccc3oc2=O)C1
inactive: 786-0 > 100 µM | CAKI-1 > 100 µM | CCRF-CEM > 100 µM | DU-145 > 100 µM | HCT-116 > 100 µM | HOP-92 > 100 µM | HT-29 > 100 µM | Hs-578T > 100 µM | IGROV-1 > 100 µM | OVCAR-3 > 100 µM | OVCAR-5 > 100 µM | RPMI-8226 62.8 µM | SK-MEL-2 > 100 µM | SNB-75 > 100 µM | T47D > 100 µM | U-251 > 100 µM | UACC-62 > 100 µM

Nc1ncnc2ccc(Sc3ccc4ncnc(N)c4c3)cc12
inactive: 786-0 > 100 µM | CAKI-1 > 100 µM | CCRF-CEM > 100 µM | DU-145 > 100 µM | HCT-116 > 100 µM | HOP-92 71.3 µM | HT-29 > 100 µM | Hs-578T > 100 µM | IGROV-1 > 100 µM | OVCAR-3 > 100 µM | OVCAR-5 > 100 µM | RPMI-8226 > 100 µM | SK-MEL-2 > 100 µM | SNB-75 > 100 µM | T47D > 100 µM | U-251 > 100 µM | UACC-62 > 100 µM

C[C@]12CC[C@@H]3c4ccc(O)cc4CC[C@H]3[C@@H]1CC[C@@H]2OC(=O)CCc1ccccc1
inactive: 786-0 34 µM | CAKI-1 18.4 µM | CCRF-CEM 22.5 µM | DU-145 19.5 µM | HCT-116 20.3 µM | HOP-92 19.1 µM | HT-29 19.6 µM | Hs-578T 5.14 µM | IGROV-1 20.8 µM | OVCAR-3 20.5 µM | OVCAR-5 44.4 µM | RPMI-8226 15.7 µM | SK-MEL-2 15.2 µM | SNB-75 15.1 µM | T47D 17.7 µM | U-251 18.7 µM | UACC-62 13.9 µM
